We go through 1 compound from US20260097002A1, “METHOD OF TREATMENT AND DEVICE FOR THE IMPROVED BIOAVAILABILITY OF LEUKOTRIENE RECEPTOR ANTAGONISTS” (INTELGENX CORP., priority 2022, published 2026).

A short description of series [1]: Clinical study: plasma pharmacokinetics, film vs Singulair tablet. The note with it: human, oral, 10 mg, clinical trials of the film, read-out: Tmax of plasma levels. The format is in vivo. As for the experimental part:
We have performed a clinical study of our product to determine the pharmacokinetics of the API loaded into this pharmaceutical platform. […] Singulair® is the marketed formulation of MTL, commonly prescribed for asthma sufferers. It consists of a 10 mg loaded API tablet. The Cmax and Tmax values are listed below, see Table 2. […] These higher values for our films means that we could load less API into the film product and achieve the same Cmax/AUC as the Singulair® reference product. The major difference between the disclosed Intelgenx prototype and Singulair® is the physical state of the MTL once it reaches the stomach. In the Singulair® product, the MTL reaches the stomach in a compressed solid state and thus must solubilize in the stomach under unfavorable conditions. […] The MTL is then transferred to the small intestine via the pylori. Since the MTL is already present as a suspended precipitate, the MTL may more easily reach the small intestine through the leaking pylori. It is well known that the pylori is not leak proof and allows some liquid to flow through even in its closed position. […] In particular, the chewable dosage form is about 1.17 times more bioavailable than the tablet when administered in a fasting subject (compared using available bioavailability date shown in Table 2). […]

The next series deals with plasma proteins. The settings on record: cited from earlier work.
The conditions of series [2]: rats dosed with radiolabeled MTL; cited from earlier work.
For series [3] the following is noted: MTL in tablet form; cited from earlier work.

Molecules are shown by their SMILES.

`CC(C)(O)c1ccccc1CC[C@@H](SCC1(CC(=O)O)CC1)c1cccc(/C=C/c2ccc3ccc(Cl)cc3n2)c1` [MTL, Montelukast]: the Tmax (commonly the time from dosing to the highest level) in series [1] was 2 to 4 h. The “Bound to plasma proteins” value in the series on plasma proteins was “more than 99%”. For the same compound, the “Distribution across the blood-brain barrier” value in series [2] is recorded as “minimal distribution”. Further, the “Time to maximum concentrations in blood stream” value in series [3] was 2 to 4 h.
